Data taken from patent US8580579B2, “Hydrophilic and lipophilic rhodamines for labelling and imaging” (Max-Planck-Gesellschaft zur Foerderung der Wissenschaften …, priority 2009, dated 2013).
“Also recorded” adds a separate entry of the source.

Key:
[1] = UV-visible absorption and fluorescence spectra of the dyes of the invention; format: physicochemical; conditions: for Stokes shift: dyes of the invention; for ε · 10^−5 / λmax (abs.) / λmax (fl.): solvent H2O
Method: UV-visible absorption spectra were recorded on a Varian Cary 4000 UV-Vis spectrophotometer, and fluorescence spectra on a Varian Cary Eclipse fluorescence spectrophotometer. Reactions were carried out upon magnetic stirring in Schlenk flasks equipped with septa or reflux condensers with bubble-counters under argon using a standard manifold with vacuum and argon lines. All NMR spectra are referenced to tetramethylsilane as an internal standard (δ=0 ppm) using the signals of the residual protons of CHCl3 (7.26 ppm) in CDCl3, CHD2OD (3.31 ppm) in CD3OD, HOD (4.75 ppm) in D2O, [D5]acetone (2.04 ppm) in [D6]acetone or [D5]DMSO (2.50 ppm) in [D6]DMSO. Multiplicities of signals are described as follows: s=singlet, br. s=broad singlet, d=doublet, t=triplet, q=quartet, quint=quintet, m=multiplet, mc=centrosymmetrical multiplet. Coupling constants (J) are given in Hz. Multiplicities in the ^13C NMR spectra were determined by APT (Attached Proton Test) measurements. Low resolution mass spectra (electro spray ionization, ESI) were obtained with LCQ and ESI-TOF mass-spectrometers (MICROTOF (focus), Fa. Bruker). The MICROTOF spectrometer equipped with ESI ion source Apollo and direct injector with LC autosampler Agilent RR 1200 was used for obtaining high resolution mass spectra (ESI-HRMS). ESI-HRMS were obtained also on APEX IV spectrometer (Bruker). HPLC system (Knauer): Smartline pump 1000 (2×), UV detector 2500, column thermostat 4000 (25° C.), mixing chamber, injection valve with 20 and 100 μL loop for the analytical and preparative columns, respectively; 6-port-3-channel switching valve; analytical column: Eurospher-100 C18, 5 μm, 250×4 mm, 1.1 mL/min; preparative column: Eurospher-100-5 C18, 5 μm, 250×8 mm, 3.7 mL/min; solvent A: water+0.1% v/v trifluoroacetic acid (TFA); solvent B: MeCN+0.1% v/v TFA; detection at 636 nm (if not stated otherwise). Normal phase analytical TLC was performed on MERCK ready-to-use plates with silica gel 60 (F254) and reversed phase TLC—on RP-18W/UV254 precoated TLC plates (Macherey-Nagel). Preparative TLC was performed on MERCK HPTLC silica gel 60 plates (10×10 cm, layer thickness 0.2 mm). Column chromatography: MERCK silica gel, grade 60, 0.04-0.063 mm or Polygoprep 60-50 C18 (Macherey-Nagel).

[2] = Fluorescence quantum yield, Atto 633 as reference; format: physicochemical; conditions: Atto 633 as reference (Φfl = 64% in aqueous buffer)
Excerpt: Moreover, intersystem crossing rates (kISC) and rates of the T1→S0 transitions were also found to be the same for both deuterated and undeuterated substances (see ref. to Table 2).

[3] = Excited state lifetime and FCS study under single molecule conditions; format: physicochemical
[4] = Chemical and storage stability of dyes and reactive derivatives; format: physicochemical
physchem = conditions: water
[5] = Solubility and polarity of the dyes
[6] = Conjugation with antibodies: labelling degree and quantum yield of conjugates; format: physicochemical
Excerpt: The degree of labelling achieved with antibodies may strongly vary; typically, compounds 6/6D (taken as their NHS esters 9/9D) attached to the anti-rabbit and anti-mouse antibodies produced a labelling degree from 2.5 up to 6. […] Decrease in fluorescence quantum yields after conjugation with antibodies is normal and well documented [cf.: V. P. Boyarskiy, V. N. Below, R. Medda, B. Hein, M. Bossi, S. W. Hell, Chem. Eur. J. 2008, 14, 1784-1792].

[7] = Bleaching measurements by pump-probe cycles; format: physicochemical; conditions: 50 pump-probe cycles, pump intensity 18 kW/cm^2, 633 nm CW, 10 ms pulses, air-oxygen
Method: The degree of photodecomposition was evaluated by measuring the decrease in the fluorescence intensity of compound 6 (FIG. 5). […] The pulse duration was 10 ms, and the pulse power 18.3 kW/cm^2 (633 nm CW laser light). Photostability of compound 6 is strong: 50 pump-probe cycles with a pump intensity of 18 kW/cm^2 only bleach 25% of the ensemble allowing for a high number of single-molecule returns, i.e. a high number of single-molecule localizations and thus a final image with high contrast.

[8] = Ground state depletion studies (pump-probe mode); format: physicochemical
Excerpt: The compound 6 is excellent for super-resolution far-field microscopy based on ground-state depletion, such as GSDIM (ground-state depletion followed by individual molecule return; J. Fölling et. al, Nature Meth. 2008, 5, 943-945). Here, “off” and “on” switching of the fluorescence is achieved by transiently shelving the fluorophore into a metastable dark state. Upon the return of only a few isolated single molecules to the fluorescent singlet state, positions of these single light emitting spots can be imaged on a camera and localized with high precision. Upon repeating this procedure and acquiring many pictures, a super-resolution image can be reconstructed from the localized positions. A prerequisite of this method is that >90% of the ensemble of the applied fluorescent dye can be shelved into a dark state at a time (to ensure the detection of isolated fluorescent spots at a time in a densely labeled sample) and that the fluorophore is bright enough, i.e., that it emits enough photons while being in the singlet on-state (to ensure high precision of localization). […] Switching off of the laser leads to a recovery of the fluorescence ensemble within a characteristic recovery time of 50 ms (FIG. 7), indicating the shelving into a metastable dark state. The measurements of FIGS. 6 and 7 were performed in a pump-probe mode, i.e., the residual level of fluorescence was probed with I=100 W/cm^2 for 0.5 ms after strong irradiation for 10 ms with the given laser intensity. Further on, recovery of the fluorescence can be accelerated by addition of UV light, which leads to an optically-induced de-population of the dark states. Already 2 kW/cm^2 of 375 nm light recovers 60% of the fluorescence within an irradiation period of 1 ms (FIG. 8). This is important in cases of samples of low label density where the addition of UV light and thus acceleration of dark state return helps to accelerate image acquisition.

Stokes shift [1]	ε · 10^−5 [1]	λmax (abs.) [1]	λmax (fl.) [1]	Φfl in water [2]	τfl (excited state lifetime) [3]	solubility (physchem)	polarity [5]	fluorescence quantum yield of the conjugate ([6]; conjugate with goat anti-rabbit antibodies)	fluorescence quantum yield of the conjugate ([6]; conjugate with sheep anti-mouse antibodies)	fraction of the ensemble bleached [7]	fluorescence recovered by UV light ([8]; 2 kW/cm^2 of 375 nm light, irradiation period 1 ms)	extent of ground state depletion ([8]; 633 nm laser pulses, ca. 12 kW/cm^2)	fluorophores switched off at a time ([8]; I>10 kW/cm^2 CW 633 nm, poly(vinyl alcohol) matrix)	solubility in water ([5]; room temperature)	SMILES	stability in methanol or methanol-containing solutions [4]	solubility in water or aqueous buffers [5]	solubility in organic solvents [5]
23 nm	0.92 M^−1 cm^−1	637 nm	660 nm	78%	3.67^21 ns	> 100 mM	polar; also recorded: hydrophilic								[2H]C1=C(C([2H])([2H])S(=O)(=O)O)c2cc3c(c4c2N(CCC4)C1(C([2H])([2H])[2H])C([2H])([2H])[2H])Oc1c2c4c(cc1=C3c1c(F)c(F)c(F)c(F)c1C(=O)N(C)CCC(=O)O)C(C([2H])([2H])S(=O)(=O)[O-])=C([2H])C(C([2H])([2H])[2H])(C([2H])([2H])[2H])[N+]=4CCC2 [Compound 6D]	rapid esterification of the β-alanine fragment with methanol	soluble in water or aqueous buffers	
23 nm	0.94 M^−1 cm^−1	637 nm	660 nm	80%	3.57^20 ns	> 100 mM	polar; also recorded: hydrophilic	40%	48%	25%	60%	97±3%	97%	40-45 mg in 1 mL	CN(CCC(=O)O)C(=O)c1c(F)c(F)c(F)c(F)c1C1=c2cc3c4c(c2Oc2c1cc1c5c2CCCN5C(C)(C)C=C1CS(=O)(=O)O)CCC[N+]=4C(C)(C)C=C3CS(=O)(=O)[O-] [Compound 6]	formed the corresponding methyl ester; also recorded: rapid esterification of the β-alanine fragment with methanol	soluble in water; also recorded: soluble in water or aqueous buffers	insoluble in diethyl ether, aliphatic, chlorinated, and aromatic hydrocarbons
